Experiments:
Assay type in all cases: in vivo, human
healthy male subjects [1] = assay: Experiment 1: effect of phosphorus ingestion on oral glucose tolerance test (OGTT)
Method: (§1) The example was comprised of two experiments. Healthy male subjects were recruited to perform the experiments (Table 1). Placebo (cellulose) or P (125 mg of potassium phosphate per tablet) tablets, which had similar weight and color, were administered to subjects in a randomized order to prevent order-of-treatment effect. The consent forms were obtained from patients.
Seven overnight fasted subjects (age (mean±SEM): 23.2±1.83 years; BMI: 22.65±0.82 kg/m2) (Table 1: Experiment 1) were asked to attend 3 experimental sessions that were separated by a minimum of 3 days. Sessions included the consumption of either 500 mg of P (4 tablets), a glucose solution (75 g glucose) with 4 Placebo tablets, or a glucose solution (75 g glucose) with 500 mg P. All were ingested with 250 ml of cold water. Blood was withdrawn at base-line and monitored till 240 min (min) after consumption.
(§2) Serum was separated from collected blood samples and stored at −80° C. for later analysis of glucose, total P, tri-glyceride and insulin. Glucose was measured from venous samples. Insulin sensitivity was estimated by the method of Caumo A, Bergman R N, Cobelli C. Insulin sensitivity from meal tolerance tests in normal subjects: a minimal model index. J Clin. Endocrinol. Metab. 2000; 85:4396-402 and expressed as (×10^4 dl·kg^−1·min^−1·μUml^−1). The method is based on the kinetic of both glucose and insulin through coupling their rate of appearance into circulation following oral glucose ingestion. It is based on simple area under the curve type of calculation and was validated in normal subjects in whom their calculated insulin sensitivity was strongly correlated to that of frequently […] sampled IV glucose test (FSIGT). In addition, index of insulin sensitivity was calculated using the composite equation proposed by Matsuda M, DeFronzo R A. Insulin sensitivity indices obtained from oral glucose tolerance testing: comparison with the euglycemic insulin clamp. Diabetes Care. 1999; 22 (9):1462-7.
(§3) Data are presented as means±SEM. Paired t-tests were used to compare between treatments and to detect the difference from baseline within each treatment. Repeated Measure ANOVA was run to test the effect of treatment groups over time on each of the dependent variables (P, Glucose and insulin). The level of significance was fixed at P <0.05.

healthy male subjects [2] = assay: Experiment 2: effect of pre-phosphorus ingestion (60 min before glucose) on OGTT
Method: as §1
Based on data from experiment 1, peak serum P concentration (60 min) was associated with significant decrease in serum glucose and insulin levels. Thus, experiment 2 was designed to investigate whether P intake one hour prior to glucose ingestion would potentiate the effect of P on postprandial glucose and insulin levels. Eight over-night fasted subjects (age: 27.3±1.68 years; BMI: 23.5±0.97 kg/m^2) (Table 1: Experiment 2) attended 2 experimental sessions that were separated by a minimum of 3 days. Subjects were given placebo or P (500 mg) tab-lets 60 min prior to glucose ingestion. Blood was drawn at baseline (−60 min) and monitored till 240 min relative to glucose ingestion.
as §2, §3

[3] = system: subjects (unrestrained eaters, stable body weight); assay: Ad libitum energy intake at subsequent meal after preloads with or without phosphorus; conditions: for Energy intake (ad libitum) at subsequent meal +P: lunch 80 min after preload, mean ± s.d.
Method: A preliminary set of experiments was conducted to investigate the effect of increased phosphorus content of a preload solution on subsequent food intake. The effect of water, sucrose (50 g), fructose (40 g fructose plus 10 g glucose) or glucose (50 g) preloads was examined with or without the addition of 500 mg of phosphorus (mixture of potassium and sodium phosphate). This work was approved by the Institutional Review Board of the American University of Beirut and written informed consent was obtained from all subjects. In brief, participants who had stable body weight for the last 3 months and were unrest-rained eaters as assessed by the three-factor eating questionnaire were selected. All subjects were regular breakfast consumers and were asked to maintain their regular dietary and physical activity habits throughout the course of the example. Subjects were asked to avoid alcohol consumption, as well as any unusual strenuous exercise 24 h before the example. After a minimum of a 12-h fast, they consumed a standard breakfast (440 kcal) 4 h before presenting for the example. Participants chose a time between 1100 and 1400 to be convenient to perform the test; thereafter, they were asked to arrive at the same time on the same day of the week for the second study session. Thus, each experiment used a within-subject design, wherein each participant served as his or her own control.
In each experiment, two chilled preloads (with or without added phosphorus) were offered in a blind randomized order so as to control for the order-of-treatment effect. Each subject presented for two study days separated by a minimum of 1 week. […] At 80 min after the preload, an ad libitum lunch, consisting of standard pizza and water, was offered. Subjects were asked to eat freely until they felt ‘comfortably full’; both food and water intakes were measured. Water intake was measured by weight (g) and food or energy intake (kcal) was obtained from the overall weight of pizza consumed.

lean male subjects = assay: Postprandial energy expenditure after high carbohydrate meal with or without P (ventilated hood); conditions: 500 Kcal high carbohydrate meal with 500 mg of P
Method: The objective was to determine the effect of phosphorus (P) ingestion with high carbohydrate meal on postprandial energy expenditure. P ingestion increases postprandial thermogenesis of the subjects.
A cross over study was conducted on six lean male subjects. Subjects received a 500 Kcal high carbohydrate meal (CHO: 65% E; Fat: 31% E; Protein: 4% E) with (500 mg of P) or without P. Energy expenditure was measured at baseline and at 30 minute intervals for 4 hours following meal ingestion using a ventilated hood and canopy system COSMED QUARK CPET unit.

overweight/obese adults = assay: 12-week double-blind randomized placebo-controlled phosphorus supplementation study
Method: Participants: After approval of the study by the institutional review board at the American University of Beirut (Beirut, Lebanon), 63 adults aged 18 to 45 years with a BMI ≥25 kgm−2, who provided signed informed consent, were recruited from the general public using poster advertisements or direct approach. Exclusion criteria included glomerular filtration rate of 60 ml min−1 per 1.73 m^2, presence of any significant medical disease, pregnancy or lactation, regular administration of drugs that affect body weight and weight change of ≥3% within 3 months before the study. The enrollment of 40 subjects (20 per group) would detect a 10% change in weight of the placebo group, assuming the latter having a mean weight of 90 kg and s.d. of 10 kg, with 80% power and an a of 5%.
This double-blind, randomized, controlled study allocated subjects into placebo group (n=21) or phosphorus group (n=26). Participants were requested to take three tablets containing either 375 mg phosphorus or a placebo (Nutricap Labs, Farmingdale, N.Y., USA) with each main meal (breakfast, lunch and dinner) for 12 weeks. They were asked to maintain regular dietary and physical activity habits during the entire study course and avoid alcohol consumption and any strenuous exercise 24 h before their visits (at baseline, 6 weeks and 12 weeks). Assignment to intervention or control group was made by having the principle investigator (corresponding author) ask the eligible subjects to blindly draw an envelope from a large box of 100 opaque, sealed envelopes (50 for each group), each containing a 2-cm by 2-cm paper with a written code designating intervention or control. There were no detectable differences in size or weight between intervention and control envelopes. In addition, both researchers and participants were blinded for the type of supplements that were similar in size, shape, color and odor.
Subjects were asked to attend the research unit at baseline and after 6 and 12 weeks of participation. At baseline, anthropometric measurements and blood samples were collected and a subjective appetite questionnaire based on Wilson et al. Appetite assessment: simple appetite questionnaire predicts weight loss in community-dwelling adults and nursing home residents. AJCN 2005; 82:1074-1081 was completed. Participants were given a 6-week supply of the allocated supplement and were asked to attend the research unit at the end of this period. At 6 weeks, remaining tablets were collected and counted in order to assess adherence to the allocated intervention. Participants were then given a supply of the same type of supplementation for the consequent 6 weeks and were asked to complete the subjective appetite questionnaire. At 12 weeks, data were collected similar to the baseline visit, and remaining tablets were counted to assess compliance. Individuals who consumed […] of the allocated tablets were excluded. Body weight and height (without shoes) were measured to the nearest 0.1 kg and 0.1 cm, using a calibrated Seca balance (Hamburg, Germany) and a portable stadiometer, respectively. […] Serum phosphorus, creatinine, C-reactive protein, total cholesterol, high-density lipoprotein cholesterol, triglyceride and glucose levels were measured using the Vitros 350 analyzer (Ortho Clinical Diagnostics, Johnson and Johnson, Buckinghamshire, UK). […] Fasting insulin concentration was measured using the ELISA kit (Diametra Millipore, Billerica, Mass., USA). […]

[4] = Experiment 2 (n = 8), 500 mg P 60 min prior to 75 g glucose, mean ± SEM

[P] [Phosphorus, phosphorus]
Postprandial insulin concentration (healthy male subjects [1]; 500 mg P alone): did not alter postprandial insulin concentration
Postprandial serum P (healthy male subjects [1]; 500 mg P alone): increased serum P significantly
Decrease in postprandial serum glucose concentration (healthy male subjects [1]; 500 mg P alone, during the experimental session (240 min), believed to be the result of fasting): around 5 mg/dl
Insulin sensitivity [29] (healthy male subjects [1]; Experiment 1 (n = 7), 500 mg P co-ingested with 75 g glucose, mean ± SEM, Caumo et al. formula): 20.22 ± 6.65 ×10^4 dl·kg^−1·min^−1·μUml^−1
Insulin sensitivity index [30] (healthy male subjects [1]; Experiment 1 (n = 7), 500 mg P co-ingested with 75 g glucose, mean ± SEM, Matsuda composite equation): 7.00 ± 1.06
Insulin levels vs glucose treatment (healthy male subjects [1]; G+P (75 g glucose + 500 mg P), time 60 min, P=0.002): significantly lower
Magnitude of increase in postprandial serum glucose vs glucose treatment (healthy male subjects [1]; G+P (75 g glucose + 500 mg P), time 60 min, P=0.016): significantly lower
Magnitude of insulin increase vs placebo preload (healthy male subjects [2]; 500 mg P preload 60 min before 75 g glucose): modestly lower
Serum P levels following P ingestion (healthy male subjects [2]; 500 mg P preload 60 min before glucose, time 0 and 15 min, then returned to baseline): increased significantly
Insulin sensitivity [29] (healthy male subjects [2]; [4]): 18.39 ± 3.28 ×10^4 dl·kg^−1·min^−1·μUml^−1
Insulin sensitivity index [30] (healthy male subjects [2]; [4]): 8.88 ± 0.78
Energy intake (ad libitum) at subsequent meal +P ([3]; Fructose (40 g fructose plus 10 g glucose) preload with 500 mg added phosphorus): 676 ± 404 kcal
Energy intake (ad libitum) at subsequent meal +P ([3]; Glucose (50 g) preload with 500 mg added phosphorus): 652 ± 291 kcal
Energy intake (ad libitum) at subsequent meal +P ([3]; Sucrose (50 g) preload with 500 mg added phosphorus): 532 ± 341 kcal
Energy intake (ad libitum) at subsequent meal +P ([3]; Water preload with 500 mg added phosphorus): 1119 ± 210 kcal
Reduction in energy intake at the subsequent meal ([3]; phosphorus added to fructose preload): 35%
Reduction in energy intake at the subsequent meal ([3]; phosphorus added to glucose preload): 25%
Reduction in energy intake at the subsequent meal ([3]; phosphorus added to sucrose preload): 33%
Reduction in energy intake at the subsequent meal ([3]; phosphorus added to water preload): 27%
Postprandial energy expenditure vs placebo (lean male subjects; 4 hours, p=0.007): significantly higher
Fat oxidation (%) (lean male subjects; p=0.022): significant rise
Carbohydrate oxidation (%) (lean male subjects; p=0.023): decreased
Change in BMI from baseline (overweight/obese adults; 375 mg phosphorus with each main meal, 12 weeks, 95% CI −0.59 to 0.12, P=0.01 vs placebo): −0.24 kgm−2
Decrease in body weight from baseline (overweight/obese adults; 375 mg phosphorus with each main meal, 12 weeks, 95% CI −1.69 to 0.40, P=0.01 vs placebo): 0.65 kg
Reduction in waist circumference from baseline (overweight/obese adults; 375 mg phosphorus with each main meal, 12 weeks, 95% CI −4.90 to −2.33): 3.62 cm
Changes in subjective appetite scores (appetite, quantity of food to reach fullness, taste of food, number of snacks) vs placebo (overweight/obese adults; baseline to 12 weeks): significantly reduced
Side effects (overweight/obese adults; over the experimental period (12 weeks)): No side effects were reported
